In one test the target is Cannabinoid receptor 2 (Homo sapiens, UniProt P34972). Briefly: Binding affinity against human Cannabinoid receptor 2 by using radioligand ([3H]CP-55940) assay.
Test [1] deals with Cannabinoid receptor (Homo sapiens) (UniProt P34972+P21554). Briefly: Ratio of binding affinity of hCB1 to hCB2 was reported. Format: protein assay.
Test [2] deals with T1, Cannabinoid receptor 1 (Homo sapiens, UniProt P21554). Briefly: Binding affinity against human cannabinoid receptor by using radioligand ([3H]CP-55940) assay.
T1 sequence (P21554 whole entry): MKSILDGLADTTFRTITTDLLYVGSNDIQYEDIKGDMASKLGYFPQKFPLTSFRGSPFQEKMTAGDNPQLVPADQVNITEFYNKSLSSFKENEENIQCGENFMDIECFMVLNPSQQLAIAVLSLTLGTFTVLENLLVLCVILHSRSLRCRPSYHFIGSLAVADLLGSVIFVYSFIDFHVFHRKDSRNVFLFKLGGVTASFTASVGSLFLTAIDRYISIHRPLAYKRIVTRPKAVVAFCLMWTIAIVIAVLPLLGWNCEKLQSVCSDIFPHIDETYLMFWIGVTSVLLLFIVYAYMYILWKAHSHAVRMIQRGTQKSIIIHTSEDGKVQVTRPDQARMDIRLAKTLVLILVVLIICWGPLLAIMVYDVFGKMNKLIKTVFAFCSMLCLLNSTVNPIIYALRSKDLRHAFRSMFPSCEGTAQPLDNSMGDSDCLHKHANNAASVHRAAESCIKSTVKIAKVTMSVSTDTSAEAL
In test [3] the target is T1, Cannabinoid receptor 1. In words: Compound was evaluated for binding affinity against human cannabinoid receptor by using radioligand ([3H]CP-55940) assay; first determination.
Test [4] addresses T1, Cannabinoid receptor 1. Briefly: Compound was evaluated for binding affinity against human cannabinoid receptor by using radioligand ([3H]CP-55940) assay; second determination.

pKi: −log10 of the molar value. A value given as a limit tells only on which side of the number the result lay.

In general, pKi refers to −log10 of the Ki, conventionally taken in molar units. Read a low pKi as a high Ki.

Cannabinoid receptor 2, sequence (P34972 whole entry): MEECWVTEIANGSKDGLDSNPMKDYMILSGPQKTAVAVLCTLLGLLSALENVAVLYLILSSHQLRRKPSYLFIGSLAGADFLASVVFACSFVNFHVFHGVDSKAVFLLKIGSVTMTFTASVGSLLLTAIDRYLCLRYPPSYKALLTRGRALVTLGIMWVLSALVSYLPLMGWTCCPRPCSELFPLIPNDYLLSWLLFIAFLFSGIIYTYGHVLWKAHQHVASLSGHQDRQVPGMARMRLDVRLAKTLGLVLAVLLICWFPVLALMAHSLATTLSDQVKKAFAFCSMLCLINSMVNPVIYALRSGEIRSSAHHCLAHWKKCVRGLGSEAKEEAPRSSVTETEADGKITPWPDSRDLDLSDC
Cannabinoid receptor (Homo sapiens), sequence (P21554 whole entry, looked up): as the sequence (P21554 whole entry) above
Cannabinoid receptor (Homo sapiens), sequence (P34972 whole entry, looked up): as the sequence (P34972 whole entry) above

As for `CCCCCCC(C)(C)c1cc(O)c([C@@H]2C=C(C)C3C[C@H]2C3(C)C)c(O)c1`, the pKi at Cannabinoid receptor 2 is 7.39; on Cannabinoid receptor 1 [2], 6.46. The Ratio in test [1] is 9.
Regarding `CCCCCCC(C)(C)c1cc(O)c2c(c1)OC(C)(C)[C@@H]1CC=C(C)C[C@@H]21`, the negative-log Ki (pKi) on Cannabinoid receptor 2 was 9.31; at Cannabinoid receptor 1 [2], 9.08. Further, in test [1], the Ratio was 1.7.
For `C=C1CC[C@@H]2[C@@H](C1)c1c(OC)cc(C(C)(C)CCCCCC)cc1OC2(C)C`, in that order: 7.71, < 4.70 and > 1000.
Turning to `C=C1CC[C@@H]2[C@@H](C1)c1c(O)cc(C(C)(C)CCCCCC)cc1OC2(C)C`, the results for the negative logarithm of the Ki (pKi) at Cannabinoid receptor 2 and on Cannabinoid receptor 1 [2] were 9.24 and 8.74, respectively. Also, in test [1], the Ratio worked out at 3.1.
On the same counts, the results for `CCCCCCC(C)(C)c1cc(O)c2c(c1)OC(C)(C)[C@@H]1CC=C(C=O)C[C@@H]21` are 8.58, 8.65 and 0.9.
On to `CCCCCCC(C)(C)c1ccc2c(c1)OC(C)(C)[C@@H]1CC=C(C)C[C@@H]21`, for which the negative-log Ki (pKi) is 7.68 on Cannabinoid receptor 2 and 6.60 at Cannabinoid receptor 1 [2]. Besides, the Ratio in test [1] stood at 12.
For `CCCCCCC(C)(C)c1cc(O)c2c(c1)OC(C)(C)[C@@H]1CCC(=O)C[C@@H]21` [NABILONE], in that order: 8.74, 8.66 and 1.2.
On the same counts, the results for `CCCCCCC(C)(C)c1ccc(-c2cc(C)cc(C)c2)cc1` are 5.67, < 4.52 and > 14.
For `CCCCCCC(C)(C)c1cc(O)c2c(c1)OC(C)(C)[C@H]1CC=C(C=O)C[C@H]21`, in that order: 6.93, 7.01 and 0.8.
For `CCCCCCC(C)(C)c1cc(O)c2c(c1)OC(C)(C)[C@H]1CC=C(C)C[C@H]21`, the pKi is 7.54 on Cannabinoid receptor 2 and 7.41 on Cannabinoid receptor 1 [2]. In addition, in test [1], the Ratio amounted to 1.3.
Take `CCCCCCC(C)(C)c1ccc(-c2cc(C)cc(C)c2)c(O)c1`: the negative logarithm of the Ki (pKi) at Cannabinoid receptor 2 was 8.38; on Cannabinoid receptor 1 [2], 7.90. Moreover, the Ratio in test [1] worked out at 3.
In the case of `CCCCCCC(C)(C)c1cc2c(c(OP(=O)(OCC)OCC)c1)[C@@H]1CC(C)=CC[C@H]1C(C)(C)O2`, the negative logarithm of the Ki (pKi) is < 4.70 on Cannabinoid receptor 1 [3], 6.35 on Cannabinoid receptor 2 and < 4.70 on Cannabinoid receptor 1 [4]. Also, the Ratio in test [1] is > 45.
For `CCCCCCC(C)(C)c1cc(OC)c2c(c1)OC(C)(C)[C@@H]1CCC(=O)C[C@@H]21`, the figures for the pKi at Cannabinoid receptor 2 and at Cannabinoid receptor 1 [2] were 6.88 and 6.21, respectively. Besides, in test [1], the Ratio worked out at 4.7.
On the same counts, the results for `CCCCCCC(C)(C)c1cc(OC)c(-c2cc(C)cc(C)c2)c(OC)c1` are 6.36, < 4.70 and > 46.
As to `CCCCCCC(C)(C)c1cc(OC)c2c(c1)OC(C)(C)[C@@H]1CC=C(C)C[C@@H]21`, the negative logarithm of the Ki (pKi) on Cannabinoid receptor 2 is 7.70; on Cannabinoid receptor 1 [2], 4.80. Besides, in test [1], the Ratio is 793.
On the same counts, the results for `CCCCCCC(C)(C)c1cc(O)c(-c2cc(C)cc(C)c2)c(O)c1` are 8.70, 7.10 and 40.

The values are drawn from ChEMBL document CHEMBL1129188, “Structure activity relationships of tetrahydrocannabinol analogues on human cannabinoid receptors” (Bioorg Med Chem Lett, 1996).
